Measurements reported in US7071168B2, “Anti-cancer compounds and methods related thereto” (The Regents of the University of Colorado, priority 1998, dated 2006).

Key:
SCLC strain SHP-77 = assay: Colorimetric tetrazolium (MTT) assay for cell survival, SCLC strain SHP-77; type: cell-based, human
Summary of the method: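 MTT assay: cells seeded overnight, treated in triplicate across a concentration range for 4 days at 37 °C, 5% CO2. On day 5, MTT was added for 4 h; formazan was dissolved in acidified isopropanol and absorbance read.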

[1] = tested on: bradykinin response of isolated guinea pig ileum; assay: Anti-bradykinin activity on isolated guinea pig ileum
Summary of the method: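 Bradykinin concentration-effect curves were run in the absence and presence of compound. Tissue: 25 mm terminal ileum from male Hartley guinea pigs fasted overnight, held at 1 g tension in O2/CO2-bubbled Krebs' solution after 1 h equilibration.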

[2] = isolated guinea pig ileum, pD2 of bradykinin is 7.4, higher numbers indicate higher potency
[3] = Table 1, higher numbers indicate higher potency

Row | Compound | MTT: ED50 for killing of SCLC strain SHP-77 in vitro (SCLC strain SHP-77; SCLC strain SHP-77 in vitro) | GPI: pA2 for bradykinin antagonist activity on isolated guinea pig ileum [1, 2] | MTT: ED50 for killing of SCLC strain SHP-77 in vitro (SCLC strain SHP-77; Table 1, SHP-77, MTT, 4 days) | GPI: pA2 for bradykinin antagonist activity on isolated guinea pig ileum [1, 3] | also measured
1 | CN(C(=O)C(Cc1ccc(OCc2c(Cl)cccc2Cl)cc1)NC(=O)CCc1ccccc1)C1CC(C)(C)N(C)C(C)(C)C1 (stereo not shown) [M652] | 7.5 µM | 5.7 |  |  | 
2 | DDD-(DArg-Arg-Eac-Ser-DIgl-Oic-Arg)2 [M854] |  |  | 7.3 µM | 5.9 | 
3 | CC1(C)CC(NC(=O)C(Cc2ccc(NS(C)(=O)=O)cc2)NC(=O)C=Cc2c(F)c(F)c(F)c(F)c2F)CC(C)(C)N1 (stereo not shown) [M648] | Inact | 5.0 |  |  | 
4 | Leu-DTrp-Phe-DTrp-DNMF-Eac2-DArg-Arg-Pro-Hyp-Gly-Igl-Ser-DIgl-Oic-Arg [B10160] |  |  | 10 µM | 6.3 | 
5 | DDD-(DArg-Arg-Aud-Ser-DF5F-Oic-Arg)2 [M890] |  |  | 1.7 µM | 5.5 | 
6 | CN1CCN(NC(=O)[C@H](Cc2ccc3ccccc3c2)NC(=O)C=Cc2ccc(NC(=O)CCCCCCCCCCC(=O)O)cc2)CC1 [M480-1] | 45 µM | 5.1 |  |  | 
7 | CC1(C)CC(NC(=O)C(Cc2ccc3ccccc3c2)NC(=O)COc2c(F)c(F)c(F)c(F)c2F)CC(C)(C)N1 (stereo not shown) [M568] | 10 µM | 5.8 |  |  | 
8 | CC1(C)CC(NC(=O)[C@H](Cc2c[nH]c3ccccc23)NC(=NC2CCCCC2)NC2CCCCC2)CC(C)(C)N1 [M264] | 16 µM | 4.7 |  |  | 
9 | DArg-Arg-Pro-Hyp-Gly-Igl-Ser-DIgl-Oic-Arg-NH2 [B10062] |  |  | Inact | 7.1 | 
10 | DDD-(Lys-Ser-DF5F-Oic-Arg)2 [M808] |  |  | 30 µM | 6.9 | 
11 | F5c-MFF-Arg [M826] |  |  | 76 µM | Inact | 
12 | F5c-DArg-Arg-Eac-Ser-DTic-Oic-Arg [M792] |  |  | >100 µM | 4.9 | 
13 | CC1CN(C(=O)[C@H](Cc2ccc3ccccc3c2)NC(=N)CCCCCCCCCCCCC(=N)N[C@@H](Cc2ccc3ccccc3c2)C(=O)N2CC(C)OC(C)C2)CC(C)O1 (stereo partly shown) [M304] | 4.2 µM | 5.9 |  |  | 
14 | SUB-(DArg-Arg-Eac-Ser-DF5f-Nc7G-Arg)2 [M1024] |  |  | 14 µM | 7.2 | 
15 | DDD-(DArg-2Nal-Arg)2 [M508] |  |  | 23 µM | Inact | 
16 | CC1(C)CC(NC(=O)[C@H](Cc2ccc3ccccc3c2)NC(=O)C(C2CCCCC2)C2CCCCC2)CC(C)(C)N1 [M276] | 4.6 µM | 5.3 |  |  | 
17 | DDD-(DArg-PFF-Arg)2 [M820] |  |  | 43 µM | Inact | 
18 | Aaa-DPhe-hPhe-Arg [M754] |  |  | Inact | 4.6 | 
19 | c[DArg-Arg-Aud-DIgl-PFF-Arg] [M850] |  |  |  |  | MTT: ED50 for killing of SCLC strain SHP-77 in vitro (SCLC strain SHP-77; Table 3, cyclic peptides): 1.4 µM; GPI: pA2 for bradykinin antagonist activity on isolated guinea pig ileum ([1]; Table 3, cyclic peptides): 5.1

Row | Compound | MTT: ED50 for killing of SCLC strain SHP-77 in vitro (SCLC strain SHP-77; SCLC strain SHP-77 in vitro) | GPI: pA2 for bradykinin antagonist activity on isolated guinea pig ileum [1, 2] | MTT: ED50 for killing of SCLC strain SHP-77 in vitro (SCLC strain SHP-77; Table 1, SHP-77, MTT, 4 days) | GPI: pA2 for bradykinin antagonist activity on isolated guinea pig ileum [1, 3] | also measured
20 | Ppa-hPhe-Arg [M708] |  |  | Inact | 5.8 | 
21 | CN(C)c1cccc2c(S(=O)(=O)NC(Cc3cc(I)c(OCc4c(Cl)cccc4Cl)c(I)c3)C(=O)N(C)C3CC(C)(C)NC(C)(C)C3)cccc12 (stereo not shown) [M666] | 1.3 µM | 5.0 |  |  | 
22 | Moti-DArg-Arg-Pro-Hyp-Gly-Igl-Ser-DIgl-Oic-Arg [B10100-1] |  |  | 4 µM | 7.8 | 
23 | F5c-PaF(Ppa)-Arg [M720] |  |  | Inact | 4.8 | 
24 | DTP-(DArg-Arg-Eac-Ser-DF5F-Nc7G-Arg)2 [M1026] |  |  | 70 µM | 6.9 | 
25 | CC1(C)CC(NC(=O)C(Cc2cccc3ccccc23)NC(=O)C=Cc2ccc(NC(=O)CCCCCCCCCCC(=O)Nc3ccc(C=CC(=O)NC(Cc4cccc5ccccc45)C(=O)NC4CC(C)(C)NC(C)(C)C4)cc3)cc2)CC(C)(C)N1 (stereo not shown) [M616] | 1.4 µM | 5.4 |  |  | 
26 | CC1(C)CC(NC(=O)[C@H](Cc2csc3ccccc23)NC(=N)CCCCCCCCCCCCC(=N)N[C@@H](Cc2csc3ccccc23)C(=O)NC2CC(C)(C)NC(C)(C)C2)CC(C)(C)N1 [M436-2] | 4.5 µM | 5.8 |  |  | 
27 | (DArg-Arg-Pro-Hyp)2Dpr-Igl-Ser-DIgl-Oic-Arg [B10098] |  |  | 20 µM | 5.3 | 
28 | CC1(C)CC(NC(=O)C(Cc2ccc3ccccc3c2)NC(=O)OC(C)(C)C)CC(C)(C)N1 (stereo not shown) [M288] | Inact | 5.2 |  |  | 
29 | DDD-( DArg-Arg-Add-Ser-DIgl-Oic-Arg)2 [M862] |  |  | 1.3 µM | 5.6 | 
30 | DDD-(DArg-Arg-Add-Ser-DIgl-PFF-Arg)2 [M864] |  |  | 1.8 µM | Inact | 
31 | CC1(C)CC(NC(=O)[C@H](Cc2ccc3ccccc3c2)NC(=O)C(c2ccccc2)c2ccccc2)CC(C)(C)N1 [M272] | 9 µM | 5.2 |  |  | 
32 | SUIM-(DArg-Arg-Pro-Hyp-Gly-Igl-Ser-DIgl-Oic-Arg-NH2)2 [B10082] |  |  | 0.7 µM | 7.2 | 
33 | BApG-DArg-Arg-Pro-Hyp-Gly-Igl-Ser-DIgl-Oic-Arg [B10084] |  |  | >20 µM | 8.1 | 
34 | CC1=C(CC(=O)NC2CC(C)(C)NC(C)(C)C2)c2cc(F)ccc2C1=Cc1ccc([S+](C)[O-])cc1 (stereo not shown) [M654] | Inact | 4.5 |  |  | 
35 | c[DArg-Arg-Add-DF5F-Oic-Arg] [M870] |  |  |  |  | MTT: ED50 for killing of SCLC strain SHP-77 in vitro (SCLC strain SHP-77; Table 3, cyclic peptides): 5.5 µM; GPI: pA2 for bradykinin antagonist activity on isolated guinea pig ileum ([1]; Table 3, cyclic peptides): 5.3
36 | CN(C(=O)C(Cc1cc(I)c(OCc2c(Cl)cccc2Cl)c(I)c1)NC(=O)C=Cc1c(F)c(F)c(F)c(F)c1F)C1CC(C)(C)NC(C)(C)C1 (stereo not shown) [M664] | 1.2 µM | 5.0 |  |  | 
37 | Ava-Igl-Ser-DF5F-Oic-Arg [M806] |  |  | Inact | 5.6 | 
38 | Dpa-PFF-Arg [M816] |  |  | 52 µM | 4.6 | 
